Assay results: PMC8418751, “3D-printing magnesium–polycaprolactone loaded with melatonin inhibits the development of osteosarcoma by regulating cell-in-cell structures” (Journal of Nanobiotechnology, 2021)

Key:
[1] = In vivo safety of melatonin in mice (body weight, HE of main organs); settings: tail vein, once every 2 days at 3 mg each time, 30 days
Protocol: Tissues were fixed in 4% paraformaldehyde. After fixation, the samples were decalcified in 10% EDTA for 21 days before paraffin embedding and then sliced microtomically into a systematic series of 16 μm sections. Standard HE staining was performed and photographed. The average number of deposits per section was calculated using Image-Pro Plus 6.0 (Media Cybernetics, USA).
The safety of melatonin in mice was further studied by injecting melatonin into the tail vein of mice once every 2 days at 3 mg each time. After 30 days, the heart, liver, spleen, lung, kidney and other important organs were collected, sectioned and stained with HE for microscopy observation. […] Along with the increasing of the mass ratio of melatonin and SunP Gel G1, the LE and LC were increased. The LE reached peak at mass ratio of 1:2 and was decreased at mass ratio of 2:1. The mass ratio of 1:2 was selected for further experiments.

U2OS cells [2] = assay: CIC formation in U2OS cells (immunofluorescence, electron microscope); assay type: cell-based, human; settings: immunofluorescence and electron microscope
Protocol: The cells were scrapped after treatment, collected by centrifugation, washed with PBS and fixed with 5% glutaraldehyde. After the cells were dehydrated, embedded, sectioned, stained, the mitophagosomes were observed by TEM. The quantity of CIC structures was calculated in 10 fields a view. After treatment, the cells were fixed with 4% paraformaldehyde at room temperature (23–25 °C) for 15 min. After PBS washing, cells were permeabilized with 0.2% Triton X-100 for 5 min. Sections were incubated in a blocking buffer containing 5% BSA for 30 min at room temperature (23–25 °C), followed by incubation with primary antibodies overnight at 4 °C. Secondary antibodies labeled with fluorescein (1:500, Abcam) were applied for 120 min. After incubating with 0.1% DAPI for 10 min and another wash with PBS, images were captured on a wide field fluorescent microscope (Olympus, Japan). Each experiment was repeated three times (total, n = 90 cells) and the fluorescence intensities were quantified with the ImageJ software. […] The cells were then washed with ice-cold PBS, and analyzed under a confocal laser scanning microscope (Olympus, Tokyo, Japan). […] Image-Pro Plus 6.0 (Media Cybernetics) was used for quantifying mitochondria.

U2OS cells [3] = assay: Transwell (Boyden chamber) cell invasion and migration assays; assay type: cell-based, human; settings: 24 h
Protocol: (§1) U2OS cells were divided into 8 groups: (1) Control group: without any treatment; (2) MT group: U2OS cells were added with 1 mM melatonin; (3) MT + ROCK activator group: U2OS cells were added with 1mM melatonin and 50 µM ROCK activator (pentanoic acid); (4) MT + ROCK inhibitor group: U2OS cells were added with 1mM melatonin and 50 µM ROCK inhibitor (ROCK inhibitor-2); (5) Mg–PCL group: U2OS cells were co-cultured with Mg–PCL scaffold; (6) Mg–PCL + MT group: U2OS cells were co-cultured with Mg–PCL scaffold loaded with melatonin; (7) Mg–PCL + MT + ROCK activator group: U2OS cells were co-cultured with Mg–PCL scaffold loaded with melatonin and added with 50 µM ROCK activator (pentanoic acid); and (8) Mg–PCL + MT + ROCK activator group: U2OS cells were co-cultured with Mg–PCL scaffold loaded with melatonin and added with 50 µM ROCK inhibitor (ROCK inhibitor-2).
To examine the effects of melatonin and CIC formation on the invasiveness of U2OS cells in vitro, we employed a modified Boyden chamber invasion assay with Matrigel coating. After treatment, the cells were seeded into the upper section of the Boyden chamber (Neuro Probe, Cabin John, MD, USA) at densities of 2.0 × 10^5/ml, and then incubated for 24 h at 37 °C. Finally, the cells were counted under a light microscope. Cell migration was measured by a cell invasion assay without Matrigel coating.

[4] = test system: PKA-Rho/ROCK signaling pathway; assay: Western blot of PKA, p-PKA, Rho, ROCK in U2OS cells; assay type: cell-based, human
Protocol: Cells or tissues were washed with ice-cold PBS and resuspended in lysis buffer (50 mM Tris–HCl, 150mM NaCl, 1% NP-40, 0.5% sodium deoxycholate, 0.1% sodium dodecyl sulfate) containing protease and phosphorylase inhibitor cocktails. After centrifugation at 12,000g for 30 min at 4 °C, the supernatant containing total protein was collected and quantified using the BCA protein concentration assay kit (Boster, Hubei, China). The samples were separated by SDS-PAGE and then transferred to polyvinylidene difluoride (PVDF) membranes (Millipore, Massachusetts, USA) (210 mA, between 30 and 120 min according to the molecular mass of the protein). After blocking for 2 h with 5% non-fat milk, the PVDF membranes were incubated with the appropriate primary antibodies (1:500 or 1:1000 dilution) at 4 °C overnight. The blots were then incubated with anti-mouse or anti-rabbit IgG conjugated to horseradish peroxidase (1:5000 dilution) for 1 h at room temperature (23–25 °C). Immunoreactive bands were visualized by the EC3 imaging system (UVP Inc., California, USA), and quantified with the ImageJ software (NIH, USA). The ratios between the proteins of interest and loading controls of the same sample were calculated as relative content and expressed graphically. The results were averaged from three independent experiments.

U2OS cells [5] = assay: Wound-healing assay; assay type: cell-based, human
Protocol: as §1
The U2OS cells were plated at 8.5 × 10^5/well on 6-well plates for 48 h and were wounded by scratching with a pipette tip. They were subsequently incubated with DMEM containing 0.5% FBS. After repeated treatment at 0, 12, 24 and 48 h, the cells were photographed using a phase contrast microscope (Olympus, Japan).

[6] = In vitro release of melatonin (dialysis bag, PBS pH 7.4); assay type: physicochemical; settings: at 10 h; PBS pH 7.4, 37 °C
Protocol: Standard curve of melatonin was first draw using PBS (pH = 7.4) as solvent under the wavelength of the maximum absorption peak (278 nm). […] The dialysis bag was then placed in a beaker containing the same pH PBS buffer and was vibrated horizontally in a constant temperature shaker (37 °C ± 0.5 °C) with a vibration frequency of 50 times/min. The release liquid (5 ml) was replaced with same amounts of fresh PBS at selected time intervals. The absorbance value of the solution was measured at 278 nm and the drug release rate was calculated as follow: R(%)=ρnV+Vi∑tn-iρi/MD×100 where R means the cumulative drug release rate (%); n means the number of sampling. ρn represents the mass concentration (g/l) of the drug in the nth release. V represents the total volume of the release liquid. ρi represents the mass concentration (g/l) of the drug in the ith release, Vi represents the volume of the release liquid at the ith sampling and MD means the mass of drug loaded (g).

human OS (U2OS) cells = assay: U2OS xenograft in nude mice: OS growth and metastasis; assay type: in vivo, Balb/c nude mice; settings: nude mice with implanted U2OS cells, 27 days
Protocol: Female Balb/c nude mice (n = 6, 8 weeks old) were purchased from the Experimental Animal Center of Jilin University. The mice were bred under temperature-controlled conditions at 22.6 ± 2 °C with a 12-h day/light cycle. All applicable institutional and national guidelines for the care and use of animals were followed and the animal experiments were approved by the Animal Care and Use Committee of China Medical University. The heterograft mouse model was established by subcutaneous injection of 2 × 10^8 human OS (U2OS) cells suspended in 0.2 ml medium into the root of the right thigh. […]
The mice were sacrificed. […] Histological alterations were evaluated using a fluorescence microscope (Nikon Eclipse Ti, Optical Apparatus Co., Ardmore, USA) and a confocal microscope (Carl Zeiss, LSM 780).
Tissues were fixed in 4% paraformaldehyde. […] The average number of deposits per section was calculated using Image-Pro Plus 6.0 (Media Cybernetics, USA). […]

U2OS cells [7] = assay: Mitochondrial physiology of U2OS cells (fluorescence, Western blot, mtDNA, ATP, O2 consumption); assay type: cell-based, human; settings: 24 h
Protocol: as §1
Cells or tissues were washed with ice-cold PBS and resuspended in lysis buffer (50 mM Tris–HCl, 150mM NaCl, 1% NP-40, 0.5% sodium deoxycholate, 0.1% sodium dodecyl sulfate) containing protease and phosphorylase inhibitor cocktails. After centrifugation at 12,000g for 30 min at 4 °C, the supernatant containing total protein was collected and quantified using the BCA protein concentration assay kit (Boster, Hubei, China). […] Immunoreactive bands were visualized by the EC3 imaging system (UVP Inc., California, USA), and quantified with the ImageJ software (NIH, USA). The ratios between the proteins of interest and loading controls of the same sample were calculated as relative content and expressed graphically. […]
After treatment, the cells were fixed with 4% paraformaldehyde at room temperature (23–25 °C) for 15 min. […] Each experiment was repeated three times (total, n = 90 cells) and the fluorescence intensities were quantified with the ImageJ software. […] The cells were then washed with ice-cold PBS, and analyzed under a confocal laser scanning microscope (Olympus, Tokyo, Japan). […] Image-Pro Plus 6.0 (Media Cybernetics) was used for quantifying mitochondria. […]

- cumulative release rate [6]: 96.3%
SMILES: COc1ccc2[nH]cc(CCNC(C)=O)c2c1 [melatonin, Melatonin]
- organ damage (HE staining of heart, liver, spleen, lung, kidney) [1]: no organ damage was observed
- weight of mice [1]: stable without notable changes
- number of CIC structure (U2OS cells [2]): significantly reduced
- number of invaded and migrated cells (Transwell) (U2OS cells [3]): significantly lower
- PKA phosphorylation (Western blot) [4]: promote PKA phosphorylation
- Rho and ROCK expressions (Western blot) [4]: reduced
- cell migrated area relative to control (wound healing) (U2OS cells [5]; U2OS cells): significantly decreased
- scratch width (wound healing) (U2OS cells [5]; U2OS cells, 0, 12, 24 and 48 h): wider
- cell apoptosis of xenograft tumors (TUNEL) (human OS (U2OS) cells): promoted
- tumor weight of xenograft tumors (human OS (U2OS) cells): effectively inhibited
- cell proliferation of xenograft tumors (Ki-67) (human OS (U2OS) cells; melatonin 40 mg kg−1 day−1 i.p. or loaded scaffold, ROCK activator/inhibitor 10 mg kg−1 day−1 i.p.): effectively inhibited
- relative fluorescence of mitochondria (U2OS cells [7]; 1 mM melatonin, 50 µM ROCK activator/inhibitor): reduced
- expression of mitochondrial biogenesis-related proteins PGC1α, NRF1 and TFAM (U2OS cells [7]; Western blot): downregulated
- expression of mitochondrial biomarkers TOM20, COX-4l1 and ATP Synβ (U2OS cells [7]; Western blot): reduced
